We go through seven compounds from ChEMBL document CHEMBL1629463, “In vitro anti-rotavirus activity of polyphenol compounds isolated from the roots of Glycyrrhiza uralensis” (Bioorg Med Chem, 2010).

In brackets after ≈: the same amount, converted by molar mass. Activity calls are given as the source filed them. No cut-off for these calls is given here.

In series [1] the test system is Porcine rotavirus. The series is described as follows: Antiviral activity against KJ56-1 Porcine rotavirus G5P[7] infected in african green monkey TF-104 cells after 72 hrs by virucidal assay. The format is functional, cell-based. The note with it: Rotavirus A, TF-104, 72 h.
Series [2] relates to Bovine rotavirus. In words: Antiviral activity against KJ56-1 Bovine rotavirus G8P[7] infected in african green monkey TF-104 cells assessed as inhibition of virus-induced cytopathic effect after 72 hrs. It is filed as functional, cell-based. The note with it: Rotavirus A, TF-104, 72 h. Background: Damage to the host cells serves as the signal in cytopathic effect assays.
Series [3] can be described thus: Cytotoxicity against african green monkey TF-104 cells after 72 hrs by MTT assay. It is filed as cell-based. The conditions noted are these: chlorocebus aethiops.
Series [4] is described as follows: Selectivity index, ratio of CC50 for african green monkey TF-104 cells to EC50 for cytopathic inhibition activity against KJ56-1 Povine rotavirus […]. It is filed as toxicity, cell-based. The note with it: read-out: Ratio CC50/EC50.
The subject of series [5] is Bovine rotavirus. In words: Antiviral activity against KJ56-1 Bovine rotavirus G8P[7] infected in african green monkey TF-104 cells assessed as inhibition of viral mRNA synthesis at 40 to 50 uM after 18 hrs by RT-PCR analysis. The format is functional, cell-based.
Series [6] deals with Porcine rotavirus. In words: Antiviral activity against KJ56-1 Porcine rotavirus G5P[7] in human RBC assessed as inhibition of virus-induced hemagglutinination after 1 hr. It is filed as functional.
Series [7] is described as follows: Selectivity index, ratio of CC50 for african green monkey TF-104 cells to EC50 for cytopathic inhibition activity against KJ56-1 Bovine rotavirus G8P[7]. The note with it: read-out: Ratio CC50/EC50. The format is toxicity, cell-based.
The subject of series [8] is Porcine rotavirus. The series is described as follows: Antiviral activity against KJ56-1 Porcine rotavirus G5P[7] infected in african green monkey TF-104 cells assessed as inhibition of viral mRNA synthesis at 40 to 50 uM after 18 hrs by RT-PCR analysis. It is filed as functional, cell-based.
In series [9] the test system is Bovine rotavirus. The series is described as follows: Antiviral activity against KJ56-1 Bovine rotavirus G8P[7] in human RBC assessed as inhibition of virus-induced hemagglutinination after 1 hr. It is filed as functional. The note with it: Rotavirus A.
In series [10] the test system is Porcine rotavirus. The series is described as follows: Antiviral activity against KJ56-1 Porcine rotavirus G5P[7] infected in african green monkey TF-104 cells assessed as inhibition of virus-induced cytopathic effect after 72 hrs. The conditions noted are these: TF-104, 72 h. It is filed as functional, cell-based.
Series [11] has as its system Bovine rotavirus. In words: Antiviral activity against KJ56-1 Bovine rotavirus G8P[7] infected in african green monkey TF-104 cells assessed as inhibition of viral replication at 30 uM after 24 hrs by immunofluorescence assay. It is filed as functional, cell-based.
Series [12] deals with Bovine rotavirus. In words: Antiviral activity against KJ56-1 Bovine rotavirus G8P[7] infected in african green monkey TF-104 cells after 72 hrs by virucidal assay. It is filed as functional, cell-based. The conditions noted are these: Rotavirus A, TF-104, 72 h.
Series [13] is described as follows: Selectivity index, ratio of CC50 for african green monkey TF-104 cells to EC50 for virucidal activity against KJ56-1 Povine rotavirus […]. It is filed as toxicity, cell-based. The note with it: read-out: Ratio CC50/EC50.
Series [14] has as its system Porcine rotavirus. The series is described as follows: Antiviral activity against KJ56-1 Porcine rotavirus G5P[7] infected in african green monkey TF-104 cells assessed as inhibition of viral replication at 30 uM after 24 hrs by immunofluorescence assay. It is filed as functional, cell-based.
A short description of series [15]: Selectivity index, ratio of CC50 for african green monkey TF-104 cells to EC50 for KJ56-1 Bovine rotavirus G8P[7] by virucidal assay. The format is toxicity, cell-based. The conditions noted are these: read-out: Ratio CC50/EC50.

The term EC50 denotes the midpoint of the concentration-response curve. One may read the CC50 as the concentration that lowers cell viability or growth by half.

For the compound `COc1cc(O)ccc1C(=O)/C=C/c1ccc(O)cc1`, the EC50 came out at 69.5 µM in the series with Porcine rotavirus [1], 41.8 µM in the series on Bovine rotavirus [2] and 24 µM in the series on Porcine rotavirus [10]. This compound had a CC50 at 72 h in [3] greater than 133 µM. For the same compound, the selectivity ratio in series [4] is 5.6; in [7], greater than 3.2. The inhibition entry in the series on Bovine rotavirus [5] and in the series on Porcine rotavirus [8] was “Active” each time. In addition, the MIC entry with Porcine rotavirus [6] was “inactive”. Also, the MIC with Bovine rotavirus [9] stood at 17.2 µM (≈ 4.65 µg/mL).
Consider `O=c1c(-c2ccc(O)cc2)coc2cc(O)cc(O)c12` [GENISTEIN], for which the EC50 with Bovine rotavirus [2] stood at 99.6 µM. The compound also showed a CC50 at 72 h in [3] of 174 µM. In addition, in [7], the selectivity ratio stood at 1.8.
Take `COc1c(CC=C(C)C)c(O)cc2c1C[C@H](c1ccc(O)cc1O)CO2` [GLYASPERIN C]: the EC50 in the series on Porcine rotavirus [1] was 18.7 µM; in the series with Bovine rotavirus [2], 12 µM; in the series with Bovine rotavirus [12], 14.7 µM; in the series with Porcine rotavirus [10] it was 12.1 µM. Also, the midpoint of cytotoxicity in series [3], the CC50 at 72 h, lay at 42.8 µM. The inhibition entry with Bovine rotavirus [11], with Bovine rotavirus [5], in the series on Porcine rotavirus [8] and in the series with Porcine rotavirus [14] was “Active” in each case. Besides, the selectivity ratio in [4] turned out to be 3.6; in series [13], 2.3; in series [7], 3.6; in series [15], 2.9. The MIC in the series with Porcine rotavirus [6] and in the series on Bovine rotavirus [9] was 17.2 µM (≈ 6.13 µg/mL) each time.
On to `COc1cc2c(c(OC)c1CC=C(C)C)C[C@H](c1ccc(O)cc1O)CO2` [GLYASPERIN D], for which the EC50 with Bovine rotavirus [2] came out at 42 µM; in the series on Bovine rotavirus [12], 17.6 µM. Also, in series [3], the CC50 at 72 h turned out to be 68.1 µM. Moreover, the inhibition entry with Bovine rotavirus [11], in the series on Bovine rotavirus [5] and with Porcine rotavirus [8] was “Active” each time. Besides, the MIC in the series on Porcine rotavirus [6] and in the series on Bovine rotavirus [9] was 17.2 µM (≈ 6.37 µg/mL) in each case. For the same compound, the selectivity ratio in series [7] came to 1.6; in series [15], 5.7. Further, the inhibition entry in the series on Porcine rotavirus [14] was “inactive”.
Take `COc1cc2oc(=O)c(-c3ccc(O)cc3O)cc2c(OC)c1CC=C(C)C` [GLYCYRIN]: the EC50 with Bovine rotavirus [2] is greater than 100 µM; in the series on Bovine rotavirus [12] it was 88.1 µM. Further, the CC50 at 72 h in series [3] is greater than 133 µM. In addition, the MIC with Porcine rotavirus [6] and with Bovine rotavirus [9] was 17.2 µM (≈ 6.58 µg/mL) each time. The selectivity ratio in series [15] was greater than 1.5.
As for `COc1c(CC=C(C)C)c(O)cc2oc(-c3ccc(O)cc3O)cc12` [LICOCOUMARONE], the EC50 with Porcine rotavirus [1] amounted to 26.1 µM; in the series on Bovine rotavirus [2], 22.3 µM; in the series on Bovine rotavirus [12], 37.8 µM; in the series with Porcine rotavirus [10], 43.6 µM. In series [3], the midpoint of cytotoxicity, the CC50 at 72 h, lay at 54.5 µM. The selectivity ratio in [4] was determined as 1.3; in series [13], 2.1; in [7] it was 2.5; in series [15], 1.4. Also, the inhibition entry with Bovine rotavirus [5] and with Porcine rotavirus [8] was “Active” in each case. Further, the MIC in the series with Porcine rotavirus [6] and in the series with Bovine rotavirus [9] was 17.2 µM (≈ 5.85 µg/mL) throughout.
For the compound `CC(C)=CCc1c(O)cc2oc(-c3ccc(O)cc3)c(O)c(=O)c2c1O` [LICOFLAVONOL], the EC50 in the series on Porcine rotavirus [1] was determined as 36.8 µM; in the series with Bovine rotavirus [2], 25.9 µM; in the series on Bovine rotavirus [12] it was 15.5 µM. The same compound showed a CC50 at 72 h in series [3] of 85.3 µM. The inhibition entry in the series with Bovine rotavirus [11], with Bovine rotavirus [5] and in the series on Porcine rotavirus [8] was “Active” in each case. Also, the MIC in the series on Porcine rotavirus [6] and in the series on Bovine rotavirus [9] was 17.2 µM (≈ 6.09 µg/mL) each time. Further, the results for the selectivity ratio in series [13], in series [7] and in [15] were 2.3, 3.3 and 5.5, respectively. The inhibition result with Porcine rotavirus [14] was “inactive”.
